# Source: patent US20140377340A1, “HLA-DR BINDING PEPTIDES AND THEIR USES” (priority 2007, published 2014)
# Assays:
# [1] = system: short term T cell lines from breast or ovarian cancer patients; assay: IFN-γ ELISpot analysis of short term T cell lines (peptide versus protein fragment; natural processing); type: cell-based, human; settings: T cell lines respond to culture peptide and to protein fragment; FIGS. 5 and 6
# Description: IFN-γ ELISpot analysis of short term T cell lines generated against HER-2/neu peptides, p53 (Panel A), p83 (Panel B), p88 (Panel C) and p885 (Panel D). […] Each bar is the mean (s.e.m.) of three replicates.
# FIG. 6 is identical to FIG. 5 except that the results were obtained using IGFBP-2 derived helper epitopes.
# [2] = system: 15 different HLA-DR molecules; assay: HLA-DR binding assays, panel of 15 different HLA-DR molecules (breadth of binding); settings: number of the 15 HLA-DR molecules bound (binders: 1000 nM or better)
# purified HLA DRB1*0101 = target: T1, purified HLA DRB1*0101 (Homo sapiens, UniProt P01903+P01911, A100R/D57E/F55L/F60I/F76Y/I96L/L162R/M171V/P40L/Q125E/R42F/V115G/Y59C); assay: HLA-DR radioligand binding inhibition assay, DRB1*0101; settings: IC50 nM purified HLA DRB1 *0101, purified HLA DRB1*0101
# T1 construct: purified from EBV transformed homozygous cell lines or single MHC allele transfected 721.221, C1R, or fibroblast lines; made in house
# Outline: (§1)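 The probe, 1-10 nM radiolabeled peptide, was incubated with 1 μM to 1 nM HLA-DR for 2 days in the presence of protease inhibitors.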
# purified HLA DRB1*1201 = target: T2, purified HLA DRB1*1201 (Homo sapiens, UniProt P01903+P01911, A100R/A169T/D57E/D86V/F55L/H45Y/K41T/L162R/M171V/P40S/Q125H/Q178H/Q39Y/Q99D/R42G/S66L/T262R/V114A/V67L/W38E/Y59H/Y61H/Y89S); assay: HLA-DR radioligand binding inhibition assay, DRB1*1201
# T2 construct: purified from EBV transformed homozygous cell lines or single MHC allele transfected 721.221, C1R, or fibroblast lines; made in house
# Description: (§2) Instead, wells of an opaque white 96-well Optiplate (Packard) are coated with 3 μg (100 μl@ 30 μg/ml) of HLA-specific antibody (Ab) that “capture” complexes of radiolabeled MHC and unlabeled peptide transferred from the molecular binding assay plate in 100 μl of 0.05% NP40/PBS. After a 3-hour incubation period, the supernatant is decanted and scintillation fluid (Microscint 20) added. Captured complexes are then measured on a microplate scintillation and luminescence counter (TopCount NXTTM; Packard).
# (§3) HLA-DR purification. Fifteen distinct HLA-DR molecules were used in quantitative assays to measure the binding of peptides to solubilized HLA-DR molecules. […] Briefly, columns of inactivated Sepharose CL4B and Protein A Sepharose were used as pre-columns. HLA-DR molecules were captured by passage of lysates over LB3.1 monoclonal antibody (anti-HLA-DRA) columns. Antibody columns were washed with 10 mM Tris-HCL, pH8.0 with 1% (v/v) NP-40, followed by PBS containing 0.4% (w/v) n-octylglucoside. […] The pH was reduced to 8.0 and the eluates were concentrated by centrifugation in Centriprep 30 concentrators at 2000 rpm (Amicon, Beverly, Mass.).
# (§4) Briefly, 1-10 nM of radiolabeled peptide was co-incubated for 2 days at either room temperature or 37° C. with 1 μM to 1 nM purified HLA-DR molecules in the presence of a cocktail of protease inhibitors. Assays were performed at various pH conditions, ranging from pH 4 to pH 7. […] After incubation, the percentage of HLA-DR-bound radioactivity is determined by capturing HLA-DR/peptide complexes on Optiplates (Packard Instruments, Meriden, Conn.) coated with the LB3.1 antibody and determining bound counts per minute using the TopCount microscintillation counter (Packard Instruments). […] Competitor peptides are tested in 2-4 complete, independent experiments, at concentrations ranging from […].
# purified HLA DRB1*1302 = target: T3, purified HLA DRB1*1302 (Homo sapiens, UniProt P01903+P01911, A100E/A169T/K41T/L162R/M171V/P40S/Q125H/Q178H/Q39Y/Q99D/R42S/S66N/T262R/V115G/W38E/Y61H); assay: HLA-DR radioligand binding inhibition assay, DRB1*1302
# T3 construct: purified from EBV transformed homozygous cell lines or single MHC allele transfected 721.221, C1R, or fibroblast lines; made in house
# Outline: as §1
# purified HLA DRB5*0101 = target: T4, purified HLA DRB5*0101 (Homo sapiens, UniProt P01903+Q30154); assay: HLA-DR radioligand binding inhibition assay, DRB5*0101; settings: IC50 nM purified HLA DRB5 *0101, purified HLA DRB5*0101
# T4 construct: purified from EBV transformed homozygous cell lines or single MHC allele transfected 721.221, C1R, or fibroblast lines; made in house
# Outline: as §1
# purified HLA DRB1*0404 = target: T5, purified HLA DRB1*0404 (Homo sapiens, UniProt P01903+P01911, A100R/A169T/F76Y/I96L/K127E/L162R/M171V/N62H/P40V/Q125Y/R42H/S133A/S149N/S66Y/V209L/W38E); assay: HLA-DR radioligand binding inhibition assay, DRB1*0404; settings: IC50 nM purified HLA DRB1 *0404, purified HLA DRB1*0404
# T5 construct: purified from EBV transformed homozygous cell lines or single MHC allele transfected 721.221, C1R, or fibroblast lines; made in house
# Description: as §2
# HLA-DR purification. Fifteen distinct HLA-DR molecules were used in quantitative assays to measure the binding of peptides to solubilized HLA-DR molecules. […] Briefly, columns of inactivated Sepharose CL4B and Protein A Sepharose were used as pre-columns. HLA-DR molecules were captured by passage of lysates over LB3.1 monoclonal antibody (anti-HLA-DRA) columns. Antibody columns were washed with 10 mM Tris-HCL, pH8.0 with 1% (v/v) NP-40, followed by PBS containing 0.4% (w/v) n-octylglucoside.
# Briefly, 1-10 nM of radiolabeled peptide was co-incubated for 2 days at either room temperature or 37° C. with 1 μM to 1 nM purified HLA-DR molecules in the presence of a cocktail of protease inhibitors. Assays were performed at various pH conditions, ranging from pH 4 to pH 7. […] After incubation, the percentage of HLA-DR-bound radioactivity is determined by capturing HLA-DR/peptide complexes on Optiplates (Packard Instruments, Meriden, Conn.) coated with the LB3.1 antibody and determining bound counts per minute using the TopCount microscintillation counter (Packard Instruments).
# purified HLA DRB1*0405 = target: T6, purified HLA DRB1*0405 (Homo sapiens, UniProt P01903+P01911, A100R/A169T/D86S/F76Y/I96L/K127E/L162R/M171V/N62H/P40V/Q125Y/R42H/S133A/S149N/S66Y/V115G/V209L/W38E); assay: HLA-DR radioligand binding inhibition assay, DRB1*0405; settings: IC50 nM purified HLA DRB1 *0405, purified HLA DRB1*0405
# T6 construct: purified from EBV transformed homozygous cell lines or single MHC allele transfected 721.221, C1R, or fibroblast lines; made in house
# Outline: as §1
# purified HLA DRB3*0101 = target: T7, purified HLA DRB3*0101 (Homo sapiens, UniProt P01903+P79483); assay: HLA-DR radioligand binding inhibition assay, DRB3*0101; settings: IC50 nM purified HLA DRB3 *0101, purified HLA DRB3*0101
# T7 construct: purified from EBV transformed homozygous cell lines or single MHC allele transfected 721.221, C1R, or fibroblast lines; made in house
# Description: as §2, §3, §4
structure (smiles),measurement,setting,value
CC[C@H](C)[C@H](NC(=O)[C@H](CCCNC(=N)N)NC(=O)[C@H](CC(C)C)NC(=O)[C@H](CCCNC(=N)N)NC(=O)[C@H](CCC(N)=O)NC(=O)[C@H](CC(C)C)NC(=O)[C@@H]1CCCN1C(=O)[C@@H](NC(=O)[C@H](CCC(N)=O)NC(=O)[C@H](CCCNC(=N)N)NC(=O)[C@@H](NC(=O)[C@H](CCC(N)=O)NC(=O)[C@H](CC(N)=O)NC(=O)[C@@H](N)Cc1c[nH]cn1)C(C)C)C(C)C)C(=O)N[C@H](C(=O)O)C(C)C [Peptide 9019.0034],naturally processed and presented antigen,[1],naturally processed and presented antigens
same,Total XRN,[2],12
CC[C@H](C)[C@H](NC(=O)[C@H](CCCNC(=N)N)NC(=O)CNC(=O)[C@H](CCCNC(=N)N)NC(=O)[C@@H](NC(=O)[C@@H](NC(=O)[C@H](CCC(N)=O)NC(=O)[C@H](CC(C)C)NC(=O)[C@@H](N)CC(N)=O)C(C)C)[C@@H](C)CC)C(=O)N[C@@H](CC(C)C)C(=O)N[C@@H](Cc1c[nH]cn1)C(=O)N[C@@H](CC(N)=O)C(=O)NCC(=O)N[C@@H](C)C(=O)N[C@@H](Cc1ccc(O)cc1)C(=O)O [Peptide 9019.0053],IC50,purified HLA DRB1*0101,1.9 nM
same,IC50,purified HLA DRB1*1201,47 nM
same,IC50,purified HLA DRB1*1302,9.9 nM
same,IC50,purified HLA DRB5*0101,28 nM
CC(C)C[C@H](NC(=O)[C@H](CCC(=O)O)NC(=O)[C@@H](NC(=O)[C@@H](N)CCC(=O)O)[C@@H](C)O)C(=O)N[C@@H](CCCNC(=N)N)C(=O)N[C@@H](CCCCN)C(=O)N[C@H](C(=O)N[C@@H](CCCCN)C(=O)N[C@H](C(=O)N[C@@H](CC(C)C)C(=O)NCC(=O)N[C@@H](CO)C(=O)NCC(=O)N[C@@H](C)C(=O)N[C@@H](Cc1ccccc1)C(=O)O)C(C)C)C(C)C [Peptide 9019.0073],IC50,purified HLA DRB1*0404,27 nM
same,IC50,purified HLA DRB1*0405,845 nM
same,IC50,purified HLA DRB3*0101,> 20000 nM
